Measured values: patent US12357695B2, “Peptides and nanoparticles for intracellular delivery of molecules” (AADIGEN, LLC, priority 2019, dated 2025)
Square brackets hold non-standard residues; d marks the D form. Ends that are not written are not given here. Stearyl = stearyl group covalently linked to the N-terminus; βAla = NCCC(=O)O

What was measured:
293T cells = test: Cellular delivery of Luciferase mRNA, luciferase expression at 72 hrs; type: cell-based; conditions: 0.25 μg Luc mRNA; for reduction of efficiency / luciferase expression after serum treatment: complexes incubated 3 hrs in 25% serum prior transfection; for reduction of efficiency / luciferase expression after heparan sulfate treatment: complexes incubated 3 hrs with heparan sulfate prior transfection; for luciferase expression: absence of serum or heparan sulfate treatment
Experimental: FIGS. 1A-1C show luciferase expression in 293T cells treated with ADGN-peptide/mRNA complexes. 293T cells cultured in 48 well plates were transfected with ADGN-peptide nanoparticles. ADGN-100, ADGN-106, ADGN-100RI, ADGN-106RI, ADGN-100 Stearyl, ADGN-Hydro1, ADGN-Hydro2, ADGN-Hydro3, ADGN-Hydro4, ADGN-Hydro5, ADGN-Hydro6 and ADGN-peptide/ADGN-100PEG 10% nanoparticles containing 0.25 μg mRNA were formed in sterile water, diluted in sterile water containing 5% Sucrose and filtered with 0.45 μm PES filters. ADGN/mRNA complexes were incubated for 3 hrs in the presence of either 25% serum or heparan sulfate prior transfection. Luciferase expression was monitored 72 hours post transfection and results were reported as RLU (luminescence):mg of protein.
Complex formation with mRNA. The following protocols were used for the transfection of 2-5 106 Cells or Cells at confluency of about 70-80% cultured in 24 well plates. ADGN peptide/mRNA particles were prepared at a 20:1 molar ratio of ADGN-Peptide/mRNA. using (0.25 μg) mRNA. Luc mRNA (0.25 μg) was diluted in 20 μl of sterile water (GIBCO) at room temperature. 5 μl Final Peptide Solution was added to obtain a total volume of 20 μl. The volume was adjusted to 50 μl with sterile water and was mixed gently with vortex 1 min low speed and incubated 30 min at room temperature. Then the volume was made up to 100 μl by adding sterile water containing 5% sucrose, and the solution was mixed gently with vortex 1 min low speed and incubate 5 min at 37° C. and then was proceeded to cell transfection.
Transfection protocol. Protocol is reported for 24 well plate format. Cells were cultured in Dulbecco's Modified Eagle's Medium (DMEM), supplemented with 2 mM glutamine, 1% antibiotics (streptomycin 10,000 μg/mL, penicillin, 10,000 IU/mL) and 10% (w/v) foetal calf serum (FCS), at 37° C. in a humidified atmosphere containing 5% CO2. 24 well plates seeded with 150,000 cells the day prior to transfection were grown to 50-60% confluence and set up to be at about 70% confluences at the time of transfection. Before transfection, cells were washed twice with DMEM. Cells were then overlaid with 0.1 ml of ADGN-peptide/cargo complex solution containing 0.25 μg mRNA, 0.15 μg plasmid DNA or 10-25 nM siRNA, mixed gently, and incubated for 10 min at 37° C. 0.2 mL of fresh DMEM, were added and cells were incubated for 20 min at 37° C. 1 mL of complete DMEM containing 15% FCS were then added in order to reach a final FCS concentration of 10%, without removing the overlay of ADGN-peptide/cargo complexes. Cells were returned to the incubator (37° C., 5% CO2) and 72 hrs post transfection.
ADGN-peptides were evaluated for cellular delivery of Luciferase mRNA in 293T cells. A single dose of mRNA of 0.25 μg was evaluated. Luc mRNA (0.25 μg) in sterile water (GIBCO) were mixed with ADGN-100, ADGN-100RI, ADGN-106, ADGN-106RI, ADGN-100 Stearyl, ADGN-Hydro1, ADGN-Hydro2, ADGN-Hydro5 and ADGN-Hydro6. ADGN-peptide/mRNA complexes were filtered with 0.45 μm PES filter. In order to evaluate the stability of the ADGN/mRNA complexes in high serum and cell culture conditions, the complexes were incubated for 3 hrs in the presence of either 25% serum or heparan sulfate prior transfection, then 293T cells were transfected and Luciferase expression was monitored at 72 hrs.
ADGN-106 peptides containing YIGSR targeting sequence were evaluated for cellular delivery of Luciferase mRNA in 293T cells. A single dose of mRNA of 0.25 μg was evaluated. Luc mRNA (0.25 μg) in sterile water (GIBCO) were mixed with ADGN-106 and ADGN-106Hydro variant. ADGN-peptide/mRNA complexes were filtered with 0.45 μm PES filter. The ADGN-106/mRNA complexes were incubated for 3 hrs in the presence of 25% serum prior transfection, then 293T cells were transfected and Luciferase expression was monitored at 72 hrs.

mice = test: In vivo delivery of Luciferase mRNA, intramuscular administration, bioluminescence imaging; conditions: IM, Luc mRNA
Experimental: FIGS. 5A-5B show the potency of ADGN-peptide variants for in vivo delivery of Luciferase mRNA via intramuscular administration in mice. ADGN-peptide/luc mRNA particles containing 2.5 μg mRNA were formed in sterile water, and then diluted in 5% sucrose. Mice received […] injection o 25 μl ADGN-peptide/mRNA complexes. mRNA LUC expression was monitored by bioluminescence imaging after 12 h, 24 h and 48h (A). FIG. 5B show bioluminescence imaging at 24 hr in control and treated groups.
Stable ADGN-peptides/mRNA were evaluated for in vivo delivery of Luciferase mRNA via intravenous and intramuscular administrations. Animals were treated with single dose of 5 moU modified Luc mRNA of 5 μg. 5 moU modified Luc mRNA (5 μg) in sterile water (GIBCO) were mixed with ADGN peptide (sterile water), volume for each sample was adjusted to 100 μl, with sterile water containing 5% Sucrose. Samples were mixed gently with vortex for 1 minute at low speed and incubated for 30 min at room temperature. Samples were filtered on 0.45 μm PES filters prior administration. For IV administration Mice received 100 μl intravenous (IV) injection of either ADGN-106/mRNA, ADGN-100/mRNA, ADGN-106RI/mRNA, ADGN-100-stearyl/mRNA, ADGN-100Hydro1/mRNA, ADGN-100Hydro2 or ADGN/mRNA complexes containing 10% of ADGN-100PEG (3 animals per group). As control, mice from group 3 (2 animals per group) received IV injection of 100 μl of naked 5 moU modified Luc mRNA (5 μg). For IM administration, mice received 25 μl (5 μg mRNA) IV injection of either ADGN-100/mRNA, ADGN-106/mRNA, ADGN-106RI/mRNA or ADGN/mRNA complexes containing 10% or 20% of ADGN-100PEG (2 animals per group). As control, mice from group 3 (2 animals per group) received IV injection of 25 μl of naked 5 moU modified Luc mRNA (5 μg).
mRNA Luc expression was monitored by bioluminescence. Bioluminescence imaging was performed after 12, 24, 48 and 72 hrs. Mice received an i.p. injection of 150 μg/g luciferin for noninvasive bioluminescence imaging (IVIS Kinetic; PerkinElmer, Waltham, MA, USA).

[1] = absence of serum or heparan sulfate

| Substance | reduction of efficiency / luciferase expression by modification or linker vs unmodified ADGN peptide (293T cells; [1]) | reduction of efficiency / luciferase expression after serum treatment (293T cells) [%] | reduction of efficiency / luciferase expression after heparan sulfate treatment (293T cells) [%] | increase of luciferase expression in the muscle / efficiency relative to ADGN-106 (mice) [fold] | luciferase expression (mice) | luciferase expression (293T cells) | potency relative to ADGN-100 (293T cells; [1]) [fold] |
| --- | --- | --- | --- | --- | --- | --- | --- |
| Stearyl-βA-KWRSALWRWRLWRVRSWSR-NH2 (Stearyl-[βAla]KWRSALWRWRLWRVRSWSR-NH2; not fully specified; printed as Stearyl-βA-KWRSALWRWRLWRVRSWSR-NH2) [ADGN-100 Stearyl] | not significantly affected |  |  |  |  |  |  |
| akwllrwlsrwlrwlarwlr ([dA][dK][dW][dL][dL][dR][dW][dL][dS][dR][dW][dL][dR][dW][dL][dA][dR][dW][dL][dR]; also: retro-inverso) [ADGN-106-RI] | did not modify | 26 | 13 | 6 | mediated Luciferase expression following intramuscular (IM) administration |  |  |
| rswsrvrwlrwrwgasrwk ([dR][dS][dW][dS][dR][dV][dR][dW][dL][dR][dW][dR][dW]G[dA][dS][dR][dW][dK]; also: retro-inverso) [ADGN-100-RI] | did not modify | 40 | 16 |  |  |  |  |
| βAKWRSAGWRWRLW RVRSWSR (AKWRSAGWRWRLWRVRSWSR; N-terminal beta-alanine; VARIANT 1 beta-A) [ADGN-100] |  | 90 | 50 |  | no significant expression | high level of luciferase expression |  |
| βALWRALWRLWRSLWRLLWKA ([βAla]LWRALWRLWRSLWRLLWKA) [ADGN-106] |  |  | 50 |  | mediated Luciferase expression following intramuscular (IM) administration | high level of luciferase expression | 2 |
